The source made the active and inactive calls. The calls are words filed in the database; no cut-off is given here.
Tests used:
Mus musculus [1] = experiment: Anticonvulsant activity in albino CF1 mouse assessed as protection against subcutaneous metrazol-induced seizures at 100 mg/kg, ip measured after 4 hrs; type: functional, organism-based; set-up: dose 100 mg/kg
Mus musculus [2] = experiment: Neurotoxicity in albino CF1 mouse at 100 mg/kg, ip measured after 0.5 hr; type: toxicity, organism-based; set-up: dose 100 mg/kg, route intraperitoneal; details: in vivo
Mus musculus [3] = experiment: Neurotoxicity in albino CF1 mouse at 100 mg/kg, ip measured after 0.25 hr; type: toxicity, organism-based; set-up: dose 100 mg/kg, route intraperitoneal; details: in vivo
Mus musculus [4] = experiment: Neurotoxicity in albino CF1 mouse at 100 mg/kg, ip measured after 1 hr; type: toxicity, organism-based; set-up: dose 100 mg/kg, route intraperitoneal; details: in vivo
Mus musculus [5] = experiment: Anticonvulsant activity in albino CF1 mouse assessed as protection against maximal electroshock-induced seizures at 100 mg/kg, ip measured after 0.5 hr; type: functional, organism-based; set-up: dose 100 mg/kg
Mus musculus [6] = experiment: Anticonvulsant activity in albino CF1 mouse assessed as protection against maximal electroshock-induced seizures at 100 mg/kg, ip measured after 4 hrs; type: functional, organism-based; set-up: dose 100 mg/kg
Mus musculus [7] = experiment: Anticonvulsant activity in albino CF1 mouse assessed as protection against maximal electroshock-induced seizures at 100 mg/kg, ip measured after 1 hr; type: functional, organism-based; set-up: dose 100 mg/kg
Mus musculus [8] = experiment: Neurotoxicity in albino CF1 mouse at 100 mg/kg, ip measured after 4 hrs; type: toxicity, organism-based; set-up: dose 100 mg/kg, route intraperitoneal; details: in vivo
Mus musculus [9] = experiment: Neurotoxicity in albino CF1 mouse at 300 mg/kg, ip measured after 0.5 hr; type: toxicity, organism-based; set-up: dose 300 mg/kg, route intraperitoneal; details: in vivo
Mus musculus [10] = experiment: Anticonvulsant activity in albino CF1 mouse assessed as protection against subcutaneous metrazol-induced seizures at 100 mg/kg, ip measured after 0.5 hr; type: functional, organism-based; set-up: dose 100 mg/kg
Mus musculus [11] = experiment: Anticonvulsant activity in albino CF1 mouse assessed as protection against subcutaneous metrazol-induced seizures at 300 mg/kg, ip measured after 0.5 hr; type: functional, organism-based; set-up: dose 300 mg/kg
Mus musculus [12] = experiment: Anticonvulsant activity in albino CF1 mouse assessed as protection against maximal electroshock-induced seizures at 100 mg/kg, ip measured after 0.25 hr; type: functional, organism-based; set-up: dose 100 mg/kg

**Q.** Which Activity (Mus musculus [1]) does the source give for `O=C1NC(=O)[C@@H](c2cccc(C(F)(F)F)c2)N2CCC[C@@H]12` here?
**A.** inactive

**Q.** What about the Activity (Mus musculus [2]) of the same compound?
**A.** Non-toxic

**Q.** And the Activity (Mus musculus [3])?
**A.** Toxic

**Q.** And the Activity (Mus musculus [4])?
**A.** Non-toxic

**Q.** And the Activity (Mus musculus [5])?
**A.** inactive

**Q.** What about the Activity (Mus musculus [6]) of the same compound?
**A.** inactive

**Q.** What about the Activity (Mus musculus [7]) of the same compound?
**A.** inactive

**Q.** What about the Activity (Mus musculus [8]) of the same compound?
**A.** Non-toxic

**Q.** What about the Activity (Mus musculus [9]) of the same compound?
**A.** Toxic

**Q.** And the Activity (Mus musculus [10])?
**A.** inactive

**Q.** And the Activity (Mus musculus [11])?
**A.** Active

**Q.** And the Activity (Mus musculus [12])?
**A.** inactive

— ChEMBL document CHEMBL3352057, “Novel fluorinated pyrrolo[1,2-a]pyrazine-2,6-dione derivatives: synthesis and anticonvulsant evaluation in animal models of epilepsy” (Bioorg Med Chem, 2014)
